The text below walks through data of ChEMBL document CHEMBL1201862, “PubChem BioAssay data set” (2004).

Some test systems named below: NCI-H23; SR; OVCAR-8; SNB-75; MOLT-4; SW-620; EKVX; TK-10; NCI-H226; SK-MEL-5; ACHN; DMS-114; SNB-19; SF-539; A498; NCI-H460; HCT-15; SK-MEL-28.
Holding throughout (test): growth of human tumour cells (NCI), 48 h

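48-hour exposure; five concentrations; linearly interpolated endpoints. Abbreviation: GI50, concentration required for 50% inhibition of growth.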 The source made the active and inactive calls. No stated cut-off is given here; in the data, active = GI50 up to about 1.1 µM and inactive = higher.

On to `CS(=O)(=O)NNS(=O)(=O)c1ccccc1`, for which the GI50 with NCI-H23, in the test on SR, with OVCAR-8, in the test with SNB-75, with MOLT-4 and in the test on SW-620 was > 100 µM (inactive) each time. Also, the GI50 in the test on EKVX, with TK-10, in the test on NCI-H226, in the test with SK-MEL-5, in the test on ACHN and with DMS-114 was > 100 µM (inactive) in each case. The GI50 is > 100 µM (inactive) in the test on SNB-19; > 100 µM (inactive) in the test on SF-539; > 100 µM (inactive) with A498; > 100 µM (inactive) with NCI-H460; greater than 100 µM with HCT-15.
Turning to `O=C(NOC(=O)c1ccc([N+](=O)[O-])cc1)c1ccc(Cl)cc1`, the GI50 was > 100 µM (inactive) in the test with NCI-H23; > 100 µM (inactive) in the test on SR; > 100 µM (inactive) with SK-MEL-28; 98.6 µM (inactive) with OVCAR-8; 15 µM (inactive) with SNB-75; 20.4 µM (inactive) in the test on MOLT-4. Further, the GI50 with SW-620 was 38 µM (inactive); in the test on EKVX it was > 100 µM (inactive); with SK-MEL-5, 65.2 µM (inactive); in the test with ACHN it was 37.6 µM (inactive); in the test with DMS-114, 44.5 µM (inactive); with SNB-19, > 100 µM (inactive). Besides, the GI50 in the test with SF-539 is > 100 µM (inactive); in the test on A498, > 100 µM (inactive); with NCI-H460, > 100 µM (inactive); in the test on HCT-15 it was 35.7 µM.
Take `Cc1c2nc3ccccc3sc-2cc(=O)c1C`: the GI50 is 10.3 µM (inactive) in the test on NCI-H23; > 10 µM (inactive) with SR; 49.7 µM (inactive) in the test on OVCAR-8; 52.6 µM (inactive) with SNB-75; 34.5 µM (inactive) in the test with MOLT-4; > 90.2 µM (inactive) in the test with SW-620. The GI50 in the test with EKVX was > 80.4 µM (inactive); with TK-10 it was > 100 µM (inactive); in the test with NCI-H226, > 100 µM (inactive); with SK-MEL-5, 34.8 µM (inactive); in the test with ACHN, 48.9 µM (inactive); with DMS-114, 10.2 µM (inactive). Also, the GI50 in the test with SNB-19 is > 100 µM (inactive); in the test with SF-539, 44.9 µM (inactive); in the test on A498 it was > 100 µM (inactive); in the test with NCI-H460, 12.4 µM (inactive); in the test with HCT-15, 12.9 µM.
For the molecule `Clc1ccc(-c2c(C3=NCCN3)nnn2-c2ccc(Cl)cc2)cc1`, the GI50 in the test on NCI-H23 is 35.2 µM (inactive); in the test with SR, 13.4 µM (inactive); in the test on SK-MEL-28, 25.1 µM (inactive); with OVCAR-8, 58.3 µM (inactive); with SNB-75 it was 17.8 µM (inactive); in the test on MOLT-4, 11.4 µM (inactive). Besides, the GI50 in the test with SW-620 was 25.9 µM (inactive); in the test on EKVX, 59.8 µM (inactive); in the test with TK-10, 19.7 µM (inactive); in the test with NCI-H226, 60.4 µM (inactive); with SK-MEL-5, 16.8 µM (inactive); in the test on ACHN, 39.7 µM (inactive). The GI50 with DMS-114 was 16.4 µM (inactive); in the test on SNB-19 it was 29.4 µM (inactive); in the test with SF-539, 18.2 µM (inactive); in the test with A498 it was 17.4 µM (inactive); with NCI-H460, 14.8 µM (inactive); with HCT-15, 30.1 µM.
In the case of `N#CC(Sc1ccccc1)C(N)=O` (configuration not stated), the GI50 with NCI-H23, with SR, with OVCAR-8, with SNB-75, in the test on MOLT-4 and in the test with SW-620 was > 100 µM (inactive) in each case. The GI50 in the test on EKVX, in the test with TK-10, in the test on NCI-H226, in the test on SK-MEL-5, in the test on DMS-114 and in the test with SNB-19 was > 100 µM (inactive) in each case. For the same molecule, the GI50 in the test on SF-539 is > 100 µM (inactive); in the test on A498, > 100 µM (inactive); in the test with NCI-H460 it was > 10 µM (inactive); with HCT-15, greater than 100 µM.
As for `O=C(O)/C(=C\c1ccccc1Cl)S(=O)(=O)c1ccccc1`, the GI50 is > 10 µM (inactive) with SR; > 100 µM (inactive) in the test with OVCAR-8; > 100 µM (inactive) in the test with SNB-75; > 100 µM (inactive) with MOLT-4; > 100 µM (inactive) with SW-620; > 100 µM (inactive) in the test on TK-10. In addition, the GI50 with SK-MEL-5, with ACHN, in the test on DMS-114, in the test with SNB-19, with SF-539 and in the test with A498 was > 100 µM (inactive) throughout. Also, the GI50 is > 100 µM (inactive) in the test on NCI-H460 and greater than 100 µM in the test on HCT-15.
As to `O=C(CCc1cc(-c2ccccc2)[nH]c(=S)n1)Nc1ccccc1[N+](=O)[O-]`, the GI50 in the test on NCI-H23, in the test with SR, with SK-MEL-28, in the test with OVCAR-8, in the test with SNB-75 and in the test on MOLT-4 was > 100 µM (inactive) each time. In addition, the GI50 in the test with SW-620, in the test with EKVX, with TK-10, in the test on NCI-H226, in the test on SK-MEL-5 and in the test with ACHN was > 100 µM (inactive) in each case. Moreover, the GI50 in the test with DMS-114 is > 100 µM (inactive); in the test on SNB-19, > 100 µM (inactive); in the test on SF-539, > 100 µM (inactive); with A498, > 100 µM (inactive); in the test on NCI-H460 it was > 100 µM (inactive); in the test with HCT-15 it was greater than 100 µM.
Turning to `COc1cccc(-c2cc(O)c3cc4c(cc3n2)OCO4)c1`, the GI50 was 0.287 µM (active) in the test on NCI-H23; 0.169 µM (active) in the test on SR; > 53.1 µM (inactive) in the test on SK-MEL-28; 0.22 µM (active) in the test on OVCAR-8; 0.0424 µM (active) with SNB-75; 0.139 µM (active) with MOLT-4. The GI50 was 0.034 µM (active) in the test with SW-620; 2.59 µM (inactive) in the test on EKVX; 0.662 µM (active) in the test on TK-10; 0.198 µM (active) in the test with NCI-H226; 0.0352 µM (active) in the test with SK-MEL-5; 0.183 µM (active) in the test with ACHN. Besides, the GI50 in the test with DMS-114 was 0.232 µM (active); in the test on SNB-19, 0.109 µM (active); with SF-539, 0.0603 µM (active); in the test on A498, 0.069 µM (active); in the test on NCI-H460, 0.142 µM (active); with HCT-15, 0.118 µM.
In the case of `CCN(CC)CCOc1ccc(C(O)(Cc2ccc(OC)cc2)c2ccccc2)cc1` (configuration not stated), the GI50 was 17 µM (inactive) in the test on NCI-H23; 10.7 µM (inactive) in the test on SR; 13.9 µM (inactive) with SK-MEL-28; 33.6 µM (inactive) in the test with OVCAR-8; 12.6 µM (inactive) in the test on SNB-75; 14.4 µM (inactive) with MOLT-4. Besides, the GI50 in the test with SW-620 was 17.2 µM (inactive); in the test on EKVX it was 26.9 µM (inactive); in the test with TK-10 it was 28.7 µM (inactive); in the test with NCI-H226, 26.4 µM (inactive); in the test on SK-MEL-5, 13.2 µM (inactive); in the test on ACHN it was 27.5 µM (inactive). For the same molecule, the GI50 is 14.9 µM (inactive) with DMS-114; 24.6 µM (inactive) with SNB-19; 12.4 µM (inactive) with SF-539; 18.1 µM (inactive) with A498; 22.2 µM (inactive) in the test with NCI-H460; 19.1 µM in the test on HCT-15.
